Earlier results, collected in patent publication US20030224072A1, “Topical and oral administration of a composition containing Pelargonium Graveolens for diagnosis and treatment of various neuralgias and other conditions” (priority 2002, published 2003).

Test system: neuropathic pain
Settings: topical

## COc1cc(CNC(=O)CCCC/C=C/C(C)C)ccc1O [Capsaicin]
  duration of burning sensation on skin: approximately one week
  share of neuropathic pain patients with pain relief: only a small percentage
